Consider 5 compounds from patent EP0824862A1, “Dihaloformaldoxime carbamates as antimicrobial agents” (ROHM AND HAAS COMPANY, priority 1996, dated 1998).

≈ marks a conversion by molar mass, not a printed value.

Format in all cases: cell-based
One assay has as its system Aspergillus niger. As to the kind of experiment: Minimum Inhibitory Concentration (MIC) test, two fold serial dilutions. The note with it: Trypticase Soy Broth (TSB); unit assumed. On the procedure:
(§1) The spectrum of antimicrobial activity and the effect of anionic surfactant on the antimicrobial activity of the antimicrobial agents useful in the present invention were determined in Minimum Inhibitory Concentration (MIC) tests. MICs were determined by two fold serial dilutions of a compound in Minimal Salts Media (M9G), Trypticase Soy Broth (TSB) or Tryticase Soy Broth and anionic surfactant (TSBA). The compounds were tested against Aspergillus niger, Rhodotorula rubra, Escherichia coli and Pseudomonas aeruginosa. Results of the MIC tests are shown below.

A further assay has as its system Escherichia coli. The description is as above. The settings on record: unit assumed; for MIC E.Coli M9G: Minimal Salts Media (M9G); for MIC E. Coli TSB: Trypticase Soy Broth (TSB); for MIC E. coli TSBA: Trypticase Soy Broth and anionic surfactant (TSBA). How it is done: as §1
In another assay the test system is Pseudomonas aeruginosa. The description is as above. The settings on record: Trypticase Soy Broth (TSB); unit assumed. On the procedure:
as §1

Another assay has as its system Rhodotorula rubra. The description is as above. The settings on record: Trypticase Soy Broth (TSB); unit assumed. On the procedure: as §1
Assay [1] concerns Pseudomonas aeruginosa, Klebsiella pneumonia, Enterobacter aerogenes. As to the kind of experiment: Speed of kill test in synthetic cooling water. The settings on record: mixed culture 1:1:1, 10^6 cells per mL, concentration giving at least a two log reduction.

As to `CCCCCCNC(=O)ON=C(Br)Br` [Compound 8, N-(n-hexyl)-dibromoformaldoxime carbamate], in the assay on Aspergillus niger, the MIC A. niger TSB is above 50 µg/mL. In the assay on Escherichia coli, the MIC E.Coli M9G is below 4 µg/mL, the MIC E. Coli TSB was determined as 63 µg/mL (≈ 191 µM) and the MIC E. coli TSBA turned out to be 32 µg/mL (≈ 97 µM). In the assay on Pseudomonas aeruginosa, the MIC P. aeruginosa TSB worked out at 125 µg/mL (≈ 379 µM). Besides, in the assay on Rhodotorula rubra, the MIC R. Rubra TSB was 25 µg/mL (≈ 75.8 µM). Besides, in assay [1], the “Effective Concentration 4 Hours” value is listed as below 4 ppm and the “Effective Concentration 24 Hours” value is listed as below 4 ppm.
`CCCCNC(=O)ON=C(Br)Br` [Compound 6, N-(n-butyl)-dibromoformaldoxime carbamate] showed an MIC A. niger TSB in the assay with Aspergillus niger above 50 µg/mL. Moreover, in the assay with Escherichia coli, the MIC E.Coli M9G was below 4 µg/mL, the MIC E. Coli TSB is 250 µg/mL (≈ 828 µM) and the MIC E. coli TSBA came to 63 µg/mL (≈ 209 µM). For the same compound, the MIC P. aeruginosa TSB in the assay on Pseudomonas aeruginosa amounted to 63 µg/mL (≈ 209 µM). The compound further displayed an MIC R. Rubra TSB with Rhodotorula rubra above 50 µg/mL. Also, in assay [1], the “Effective Concentration 4 Hours” value was found to be 16 ppm and the “Effective Concentration 24 Hours” value came out at 16 ppm.
The compound `Cc1ccc(NC(=O)ON=C(Br)Br)cc1` [Compound 9, N-(4-methylphenyl)-dibromoformaldoxime carbamate] registered an MIC A. niger TSB against Aspergillus niger below 0.8 µg/mL. Further, in the assay on Escherichia coli, the MIC E.Coli M9G is below 4 µg/mL, the MIC E. Coli TSB was 32 µg/mL (≈ 95.2 µM) and the MIC E. coli TSBA came out at 32 µg/mL (≈ 95.2 µM). The same compound had an MIC P. aeruginosa TSB in the assay with Pseudomonas aeruginosa of 16 µg/mL (≈ 47.6 µM). This compound also gave an MIC R. Rubra TSB against Rhodotorula rubra of 3.2 µg/mL (≈ 9.52 µM). Further, in assay [1], the “Effective Concentration 4 Hours” value worked out at 125 ppm and the “Effective Concentration 24 Hours” value is 8 ppm.
Compound `CCCCCCCCNC(=O)ON=C(Br)Br` [Compound 7, N-(n-octyl)-dibromoformaldoxime carbamate] came in with an MIC A. niger TSB against Aspergillus niger of 50 µg/mL (≈ 140 µM). In the assay on Escherichia coli, the MIC E.Coli M9G is below 4 µg/mL, the MIC E. Coli TSB amounted to 63 µg/mL (≈ 176 µM) and the MIC E. coli TSBA came to 125 µg/mL (≈ 349 µM). Further, in the assay with Pseudomonas aeruginosa, the MIC P. aeruginosa TSB was above 500 µg/mL. Besides, the MIC R. Rubra TSB in the assay on Rhodotorula rubra stood at 12.5 µg/mL (≈ 34.9 µM).
Take `O=C(Nc1ccc(Cl)cc1)ON=C(Br)Br` [Compound 3, N-(4-chlorophenyl)-dibromoformaldoxime carbamate]: the MIC A. niger TSB against Aspergillus niger is above 50 µg/mL. Besides, in the assay on Escherichia coli, the MIC E.Coli M9G is below 4 µg/mL, the MIC E. Coli TSB was found to be 63 µg/mL (≈ 177 µM) and the MIC E. coli TSBA came out at 63 µg/mL (≈ 177 µM). The compound further had an MIC P. aeruginosa TSB against Pseudomonas aeruginosa of 63 µg/mL (≈ 177 µM). In the assay on Rhodotorula rubra, this compound had an MIC R. Rubra TSB above 50 µg/mL. Further, in assay [1], the “Effective Concentration 4 Hours” value was 8 ppm and the “Effective Concentration 24 Hours” value is given as below 4 ppm.
